Source: patent publication US10865216B2, “Tricyclic Gyrase inhibitors” (MERCK SHARP & DOHME CORP., priority 2012, dated 2020)
In brackets after ≈: the same amount, converted by molar mass.

Columns and labels:
S. aureus ATCC 13709 = test: MIC, S. aureus ATCC 13709; type: cell-based; settings: for MIC: Staphylococcus aureus, ATCC13709, S. aureus, read-out: MIC Sa
E. coli ATCC 25922 = test: MIC, E. coli ATCC 25922; type: cell-based; settings: for MIC: Escherichia coli, ATCC25922, E. coli, read-out: MIC Ec
[1] = S. aureus, Alamar Blue read after overnight incubation at 35° C.
[2] = E. coli, Alamar Blue read after overnight incubation at 35° C.
[3] = Alamar Blue read after overnight incubation at 35° C.

Row | SMILES | MIC (S. aureus ATCC 13709; [3]) [µg/mL] | MIC (E. coli ATCC 25922; [3]) [µg/mL] | other results
1 | CNc1cc(F)c(F)c2c1[nH]c1nc(Oc3cncnc3)nc(N3CC4C(N)C4C3)c12 (centres unmarked) [Compound 6.19] |  |  | MIC Sa (S. aureus ATCC 13709; [1]): >16 µg/mL; MIC Ec (E. coli ATCC 25922; [2]): >16 µg/mL
2 | CNc1cc(F)c(C)c2c1[nH]c1nc(Oc3cnc(C)nc3)nc(N3CC4(CCC4N)C3)c12 (centres unmarked) [Compound 6.20] |  |  | MIC Sa (S. aureus ATCC 13709; [1]): 4 µg/mL (≈ 8.92 µM); MIC Ec (E. coli ATCC 25922; [2]): >16 µg/mL
3 | CNc1cc(F)c(C)c2c1[nH]c1nc(Oc3cnc(C)nc3)nc(NCCCN)c12 [Compound 6.21] |  |  | MIC Sa (S. aureus ATCC 13709; [1]): >16 µg/mL; MIC Ec (E. coli ATCC 25922; [2]): >16 µg/mL
4 | CNc1cc(C)cc2c1[nH]c1nc(Oc3cnc(C)nc3)nc(N3CC4C(N)C4C3)c12 (centres unmarked) [Compound 6.26] |  |  | MIC Sa (S. aureus ATCC 13709; [1]): ≤0.5 µg/mL; MIC Ec (E. coli ATCC 25922; [2]): 1 µg/mL (≈ 2.4 µM)
5 | CNc1cc(C)cc2c1[nH]c1nc(Oc3cncnc3)nc(N3CC4C(N)C4C3)c12 (centres unmarked) [Compound 6.27] |  |  | MIC Sa (S. aureus ATCC 13709; [1]): ≤0.5 µg/mL; MIC Ec (E. coli ATCC 25922; [2]): 1 µg/mL (≈ 2.48 µM)
6 | CNc1nccc2c1[nH]c1nc(Sc3cnc4nccnc4c3)nc(N3CC[C@@H](N)C3)c12 [Compound 7.01] | 8 (≈ 18 µM) | > 64 | 
7 | CNc1nccc2c1[nH]c1nc(Oc3cncnc3)nc(N3CC[C@@H](N)C3)c12 [Compound 7.02] | > 64 | 32 (≈ 84.8 µM) | 
8 | COc1nccc2c1[nH]c1nc(Sc3cnc4cccnc4c3)nc(N3CC4C(N)C4C3)c12 (centres unmarked) [Compound 7.03] | 2 (≈ 4.38 µM) | > 64 | 
9 | CNc1ncnc2c1[nH]c1nc(Oc3cncc(F)c3)nc(N3CC4C(N)C4C3)c12 (centres unmarked) [Compound 7.04] | 8 (≈ 19.6 µM) | 32 (≈ 78.5 µM) | 
10 | CNc1ncnc2c1[nH]c1nc(Oc3cnc(C)nc3)nc(N3CC4C(N)C4C3)c12 (centres unmarked) [Compound 7.05] | 8 (≈ 19.8 µM) | 64 (≈ 158 µM) | 
11 | CNc1ncnc2c1[nH]c1nc(Oc3cncc(F)c3)nc(N3CC(N)C4(CC4)C3)c12 (centres unmarked) [Compound 7.06] | 8 (≈ 19 µM) | 64 (≈ 152 µM) | 
12 | CNc1nccc2c1[nH]c1nc(Oc3cncc(F)c3)nc(N3CCC4(CC4N)C3)c12 (centres unmarked) [Compound 7.07] | 16 (≈ 38.1 µM) | > 64 | 
13 | CNc1ncnc2c1[nH]c1nc(Oc3cnc(C)nc3)nc(N3CC(N)C4(CC4)C3)c12 (centres unmarked) [Compound 7.08] | 16 (≈ 38.2 µM) | > 64 | 
14 | CNc1ncnc2c1[nH]c1nc(Oc3cnc(C)nc3)nc(N3CCC4(CC4N)C3)c12 (centres unmarked) [Compound 7.09] | 8 (≈ 19.1 µM) | > 64 | 
15 | CNc1ncnc2c1[nH]c1nc(Oc3cncnc3)nc(Oc3cncnc3)c12 [Compound 7.10] | > 64 | > 64 | 
16 | CNc1ncnc2c1[nH]c1nc(-c3cncnc3)nc(N3CC4C(N)C4C3)c12 (centres unmarked) [Compound 7.11] | > 64 | > 64 | 
17 | CNc1ncnc2c1[nH]c1nc(Oc3cnc(C)nc3)nc(N3CCC(CN)C3)c12 (centres unmarked) [Compound 7.12] | > 64 | > 64 | 
18 | CNc1cccc2c1[nH]c1nc(Oc3cncnc3)nc(Oc3cncnc3)c12 [Compound 8.1] | 2 (≈ 5.18 µM) | > 64 | 
19 | CNc1cccc2c1[nH]c1nc(Oc3cnc(C)nc3)nc(Oc3cnc(C)nc3)c12 [Compound 8.2] | 1 (≈ 2.41 µM) | > 32 | 
20 | CNc1cccc2c1[nH]c1nc(Oc3ccc[n+]([O-])c3)nc(Oc3cnc(C)nc3)c12 [Compound 8.3] | 2 (≈ 4.81 µM) | 64 (≈ 154 µM) | 
21 | CNc1cccc2c1[nH]c1nc(Oc3cnc(N)nc3)nc(Oc3cnc(N)nc3)c12 [Compound 8.4] | 8 (≈ 19.2 µM) | > 64 | 
22 | CNc1cc(F)cc2c1[nH]c1nc(Sc3nncs3)nc(N3C[C@H]4C[C@@H]3C[C@H]4N)c12 [Compound 10.11] |  |  | MIC Sa (S. aureus ATCC 13709; Table 18, Sa): ≤ 0.5 µg/mL; MIC Ec (E. coli ATCC 25922; Table 18, Ec): ≤ 0.5 µg/mL
23 | CNc1cc(F)cc2c1[nH]c1nc(Oc3cnc4ccnn4c3)nc(N3CC[C@]4(C[C@@H]4N)C3)c12 [Compound 10.12] |  |  | MIC Sa (S. aureus ATCC 13709; Table 18, Sa): ≤ 0.5 µg/mL; MIC Ec (E. coli ATCC 25922; Table 18, Ec): ≤ 0.5 µg/mL
24 | CNc1cc(F)cc2c1[nH]c1nc(Oc3cnc4ccnn4c3)nc(N3C[C@H]4CCN[C@H]4C3)c12 [Compound 10.13] |  |  | MIC Sa (S. aureus ATCC 13709; Table 18, Sa): ≤ 0.5 µg/mL; MIC Ec (E. coli ATCC 25922; Table 18, Ec): ≤ 0.5 µg/mL
25 | CNc1cc(F)cc2c1[nH]c1nc(Oc3cnc4ccoc4c3)nc(N3C[C@H]4CCN[C@H]4C3)c12 [Compound 10.14] |  |  | MIC Sa (S. aureus ATCC 13709; Table 18, Sa): ≤ 0.5 µg/mL; MIC Ec (E. coli ATCC 25922; Table 18, Ec): ≤ 0.5 µg/mL
26 | CNc1cc(F)cc2c1[nH]c1nc(Oc3cnc(C(C)O)c(Cl)c3)nc(N3C[C@H]4C[C@@H]3C[C@H]4N)c12 (some centres unmarked) [Compound 10.15] |  |  | MIC Sa (S. aureus ATCC 13709; Table 18, Sa): ≤ 0.5 µg/mL; MIC Ec (E. coli ATCC 25922; Table 18, Ec): ≤ 0.5 µg/mL
27 | CNc1cc(F)cc2c1[nH]c1nc(Oc3cnc(C(C)O)c(Cl)c3)nc(N3CC4CCNC4C3)c12 (centres unmarked) [Compound 10.16] |  |  | MIC Sa (S. aureus ATCC 13709; Table 18, Sa): ≤ 0.5 µg/mL; MIC Ec (E. coli ATCC 25922; Table 18, Ec): ≤ 0.5 µg/mL
28 | CNc1cc(F)cc2c1[nH]c1nc(Oc3cnc(C(C)O)c(Cl)c3)nc(N3CC4C[C@@H](N)C4C3)c12 (some centres unmarked) [Compound 10.17] |  |  | MIC Sa (S. aureus ATCC 13709; Table 18, Sa): ≤ 0.5 µg/mL; MIC Ec (E. coli ATCC 25922; Table 18, Ec): ≤ 0.5 µg/mL
